Several values for one entry are separate records, joined by “and”; a condition that tells them apart may be missing. Equal entries are not always repeated.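 In this assay, cells in 96-well plates receive the compound at five concentrations for 48 hours. Endpoints are linearly interpolated between the surrounding concentrations. At the GI50, growth is halved. TGI: concentration producing complete growth inhibition.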 Bounds are passed on as bounds.

The test system of this test is MDA-MB-468 breast. Kind of test: growth of human tumour cells (NCI), 48 h.

For `Nc1nc(=S)c2ncn(C3OC(CO)C(O)C3O)c2[nH]1` (centres undefined), the GI50 is 0.253 µM and the TGI came to 1.69 µM.

Consider `COc1ccc(C(C)=C(c2ccc(OCCN(C)C)cc2)c2ccc(OCCN(C)C)cc2)cc1`, for which the GI50 was 0.489 µM and the TGI turned out to be 1.44 µM.

In the case of `CCN(CC)c1ccc2c(c1)Oc1nc(N)c(C#N)c(N)c1C2Sc1ccc(F)cc1` (centres undefined), the GI50 is 1.61 µM and the TGI was found to be 3.13 µM.

With `O=C(O)c1ccc(NCc2nc3ccccc3[nH]2)cc1`, the GI50 is > 100 µM and the TGI was > 100 µM.

As to `CCCCCCCCCCCCNC(=O)N[C@H](C(=O)N[C@H]1/C=C/CCNC(=O)/C=C/[C@H](C)NC1=O)C(C)C`, the GI50 is 0.0531 µM and the TGI was 0.218 µM.

Regarding `NS(=O)(=O)c1ccc(N=Nc2c(O)[nH]c3ccc(C(=O)NCCc4cnc[nH]4)cc23)cc1`, the GI50 is > 25 µM and the TGI was > 25 µM.

Turning to `C[C@]12CCCN1CC1=NNC(=O)c3cc(F)cc4[nH]c2c1c34`, the GI50 is 13.5 µM and the TGI was 34.5 µM.

Regarding `O=C(CN1CCN(CCN2C(=O)c3cccc4cccc(c34)C2=O)CC1)Nc1ccc2ncsc2c1`, the GI50 was 4.79 µM and the TGI was determined as 22.3 µM.

Take `CC(C)n1nc(C#Cc2cccc(O)c2)c2c(N)ncnc21`: the GI50 is 3.62 µM and 2.22 µM; the TGI is 23.8 µM and 5.51 µM.

Regarding `COc1ccc(/C(=C/c2ccc3ccccc3c2)c2nn[nH]n2)cc1OC`, the GI50 is 21.5 µM and the TGI was > 100 µM.

For `CC(C)(C)[Si](C)(C)OC1[C@@H](O[Si](C)(C)C(C)(C)C)[C@@H](CNC(=O)NC(=O)NC(=O)CCl)O[C@H]1n1cnc2c(NC(=O)Nc3ccccc3)ncnc21` (some centres undefined), the GI50 is 3.91 µM and the TGI worked out at 10.5 µM.

For `Cc1cc2c(C(=O)NCC#N)cccc2n1-c1nc2c(c(NCc3ccccc3)n1)CCCC2`, the GI50 is 0.206 µM and the TGI was determined as 0.422 µM.

For the molecule `C[C@@H](Oc1ccc(Oc2cnc3ccc(Cl)cc3n2)cc1)C(=O)O`, the GI50 was 39.9 µM and the TGI was > 100 µM.

For `Cc1ccc(/C=C(/C#N)n2nnc3ncccc32)cc1`, the GI50 was 2.49 µM and the TGI came out at 11.2 µM.

With `CC(=O)OC1CC2C(C)(C)CCC[C@]2(C)C2=C1C(O)=C(C(C)C)C(=O)C2=O` (some centres undefined), the GI50 is 1.56 µM and the TGI worked out at 3.81 µM.

As for `Cc1ccc(S(=O)(=O)OCC(=O)Nc2ccc(C(=O)O)c(O)c2)cc1`, the GI50 was 29.1 µM and the TGI was 98.6 µM.

As to `CCCCCCNC(=O)Oc1ccc(/C(=C(/C)c2ccc(Cl)cc2)c2ccc(OCCN3CCCC3)cc2)cc1`, the GI50 is 1.66 µM and the TGI was 3.17 µM.

With `FC(F)(F)c1cc(Br)cc(-c2cc(-c3ccc4c(c3)OCCO4)[nH]n2)c1`, the GI50 was 0.345 µM and the TGI is > 100 µM.

`CC[C@@]1(O)C(=O)OCc2c1cc1n(c2=O)Cc2cc3c(CN(C)C)c(O)ccc3nc2-1`: the GI50 is < 0.01 µM and 0.0234 µM; the TGI is 0.0426 µM and 0.108 µM.

`COc1cc(-c2cc(-c3cccs3)c(C#N)c(N3CCOCC3)n2)cc(OC)c1OC`: the GI50 was 1.99 µM and the TGI came out at 7.06 µM.

For the molecule `CCCCOC(=O)/C=C\C(=O)NC(N)=O`, the GI50 is 4.29 µM and the TGI was 19.4 µM.

Consider `COC(=O)[C@H](Cc1ccccc1)NNC(=O)c1csc([C@@H](C[C@H](C(C)C)N(C)C(=O)[C@@H](NC(=O)[C@H]2CCCCN2C)C2CC2)OC(C)=O)n1`, for which the GI50 was 0.00652 µM and 0.0025 µM; the TGI is 25 µM and > 100 µM.

Regarding `CCOC(=O)Nc1ccc2nc(N3CCCCCC3)sc2c1`, the GI50 is 0.391 µM and the TGI amounted to 3.11 µM.

Take `Cc1cc(O[C@@H]2O[C@@H](C)[C@H](O)[C@@H](O)[C@H]2O)c2c3c(c(O[C@@H]4O[C@@H](C)[C@H](O)[C@@H](O)[C@H]4O)cc2c1)C(=O)c1c(O)cccc1C3=O`: the GI50 was 24.5 µM and the TGI is > 30 µM.

Regarding `CN1CCN(Cc2ccc(NC(=O)c3cncc(C#Cc4c(N)ncc5c(F)cccc45)c3)cc2C(F)(F)F)CC1`, the GI50 was 0.872 µM and the TGI stood at 1.69 µM.

Take `COc1ccc2nc3cc(Cl)ccc3c(NCCNCC(O)CO)c2c1` (centres undefined): the GI50 was 0.975 µM and the TGI is 3.16 µM.

`CCN(CC)S(=O)(=O)c1ccc(-c2nc(C(Cl)Cl)nc3cc(-c4ccc(F)cc4)nn23)cc1`: the GI50 is 1.78 µM and the TGI worked out at 6.46 µM.

With `COC1=CC(c2ccc[nH]2)=N/C1=C\c1[nH]c(C)c(C(=O)Oc2ccccc2)c1C`, the GI50 was 0.368 µM and the TGI stood at 1.94 µM.

For `c1ccc(COCC[P+](c2ccccc2)(c2ccccc2)c2ccccc2)cc1`, the GI50 was 0.239 µM and the TGI was 1.95 µM.

On to `CCC1=C[C@@H]2CN(C1)Cc1c([nH]c3ccccc13)[C@@](C(=O)OC)(c1cc3c(cc1OC)N(C)[C@H]1[C@@](O)(C(=O)OC)[C@H](OC(C)=O)[C@]4(CC)C=CCN5CC[C@]31[C@@H]54)C2`, for which the GI50 is < 0.01 µM and the TGI worked out at 17 µM.

As for `COc1ccc(CN2C(=O)/C(=C\C(=O)c3ccc(OCCN4CCCC4)cc3)c3ccccc32)cc1`, the GI50 is 2.07 µM and the TGI is 4.57 µM.

On to `CCNC(=O)Oc1ccc(/C(=C(\C)c2ccc(Cl)cc2)c2ccc(OCCN(CC)CC)cc2)cc1`, for which the GI50 was 3.63 µM and the TGI came out at 14.6 µM.

Turning to `O=C(NCCCl)NCCN1c2nc3ccccc3cc2Sc2cc3ccccc3nc21`, the GI50 is 1.43 µM and the TGI was 5.42 µM.

Take `O=C(COc1cccc(/C=C2\COc3ccccc3C2=O)c1)c1ccccc1`: the GI50 is 1.78 µM and the TGI is 4.6 µM.

As to `Clc1ccc(C2CC(c3cccc(Nc4ccncc4)c3)=NN2c2ccccc2)cc1` (centres undefined), the GI50 is 1.51 µM and the TGI was determined as 3.05 µM.

For the molecule `COc1ccc(C2CC(c3ccccc3)=NN2C(=O)c2cc(OC)c(OC)c(OC)c2)cc1O` (centres undefined), the GI50 was 0.223 µM and the TGI was determined as 0.613 µM.

As to `Nc1c(C(=O)c2ccc(C#CCN3CCOCC3)cc2)cnn1-c1ccc(F)cc1`, the GI50 is > 25 µM and the TGI was > 25 µM.

Turning to `CON=C1C[C@]2(C[C@@H]3C[C@@H](C/C=C(\C)C[C@@H](C)/C=C/C=C4\CO[C@@H]5[C@H](O)C(C)=C[C@@H](C(=O)O3)[C@]45O)O2)O[C@H](/C(C)=C/C(C)C)[C@H]1C`, the GI50 was 12.8 µM and the TGI turned out to be 27.5 µM.

Consider `CN(C)c1ccc(/C=C(\C#N)c2ccccc2)cc1`, for which the GI50 is 0.34 µM and 0.293 µM and 0.728 µM.

For `COc1cc(N2CCN(C(C)C)CC2)ccc1Nc1nc(Nc2ccc(F)cc2C(=O)NCC(O)CO)c2cc[nH]c2n1` (centres undefined), the GI50 is 4.46 µM and the TGI is 20.5 µM.

With `O=c1c2cccc(F)c2sc2c(NCCCNCCO)nc3ccccc3c12`, the GI50 is 1.63 µM and the TGI stood at 3.26 µM.

On to `COc1ccc(C2=NN(C=O)C(c3ccc(OS(=O)(=O)c4ccc(C)cc4)c(OC)c3)C2)cc1` (centres undefined), for which the GI50 is 1.44 µM and the TGI is 7.7 µM.

Consider `COc1ccc(Cc2cc(OC)c(OC)c(OC)c2)cc1`, for which the GI50 is 0.312 µM and the TGI is > 100 µM.

For the molecule `NC(=O)c1cc(I)ccc1NC(=O)/C=C/c1ccccc1Cl`, the GI50 is 0.374 µM and the TGI is 7.67 µM.

Turning to `CC(C)C(=O)Nc1ccc(-c2nc(-c3cccc(OCCN4CCOCC4)c3)c(-c3ccnc(Br)c3)[nH]2)cc1`, the GI50 is 1.89 µM and the TGI worked out at 4.04 µM.

Take `CCC(CC)c1cc(N[C@H]2CC[C@H](N)C2)n2nccc2n1`: the GI50 was 0.438 µM and the TGI came out at 2.39 µM.

As for `Cc1cncc(-c2nc(NCCc3c[nH]c4ccccc34)c3ncn(C(C)C)c3n2)c1`, the GI50 is 3.02 µM and the TGI worked out at 10.9 µM.

Consider `O=C(/C=C/c1ccco1)Nc1ncc(Cc2cccc(C(F)(F)F)c2)s1`, for which the GI50 is 0.111 µM and the TGI was 6.93 µM.

For the molecule `CS(=O)(=O)O[C@H]1C(=O)N(c2cc3c4ccccc4ccc3c3ccccc23)[C@@H]1c1ccccn1`, the GI50 is 0.269 µM and the TGI was found to be 5.27 µM.

With `O=C(Nc1ccc(Oc2ccc(NC(=O)Nc3ccccc3Cl)cc2)cc1)Nc1ccccc1Cl`, the GI50 was 11 µM and the TGI stood at 49.6 µM.

The values above are taken from PubChem BioAssay (NCI).
